Data set [1] relates to Karpas-299 cells. Briefly: Cellular toxicity test (1), CellTiter-Glo, Karpas-299. The following applies: Homo sapiens, 96 h, cultured 4 days, cell viability. It counts as cell-based. Here is the method: (§1) SU-DHL-1 cells (American Type Culture Collection, hereinafter, ATCC) and Karpas-299 cells (European Collection of Authenticated Cell Cultures, hereinafter, ECACC), which are human lymphoma cell lines, were cultured in RPMI 1640 (GIBCO) containing 10% fetal bovine serum (MP Biomedicals) (hereinafter, referred to as the “culture medium” in this test). SU-DHL-1 cells and Karpas-299 cells were prepared to be 2×10^6 cells/mL in the culture medium, and were added to a 96 well microplate for cell culturing in an amount of 50 μL for each well. Compounds of Examples or hemiasterlin 4 times diluted with the culture medium in 8 stages were added to the microplate in an amount of 50 μL for each well. To wells to which the test substance was not added, the culture medium was added in an amount of 50 μL for each well. These were cultured at 37 degree under 5% CO2 for 4 days. After culturing, the microplate was taken out from the incubator, and was left at rest at room temperature for 10 minutes. To each well, 50 μL of CellTiter-Glo Luminescent Cell Viability Assay (Promega) was added, and the resultant mixture was stirred. This mixture was incubated at a dark place for 20 minutes. Using a microplate luminometer, luminescence at each well was measured, thereby calculating the cell viability for each concentration of the test substance. From the cell viability, the IC50 value of the test substance was determined.
(§2) The IC50 value was calculated by the following formula: IC50(nM)=antilog(LOG10(a/b)×(e−d)/(c−d)+LOG10b) • a: concentration a of test substance • b: concentration b of test substance • c: cell viability upon adding test substance with concentration a • d: cell viability upon adding test substance with concentration b • e: intermediate value between maximum and minimum among cell viabilities upon • adding test substances with different concentrations (a and b are concentrations crossing the cell viability e, and a>b is indicated).
(§3) The cell viability at each concentration was calculated by the following formula: Cell Viability (%)=a′/b′×100 • a′: mean value of luminescence amount of wells to which test substance was added (n=6) • b′: mean value of luminescence amount of wells to which test substance was not added (n=6) • (n represents the number of evaluations performed per test substance concentration).
For orientation: In ATP-based viability assays light output follows the ATP content of the culture.

Data set [2] can be described thus: Pharmacokinetic evaluation test using mice. It counts as in vivo. The following applies: for half-life: single intravenous administration. Here is the method:
A pharmacokinetic evaluation test was performed by single intravenous administration of Example 4 at a dose of 1.0 mg/kg to mice. A calibration curve was made from measurements of Example 4 with known concentration, and by interpolating measurements of each specimen to this, the amount of the compound contained in unit volume of each plasma was calculated using LC-MS. Pharmacokinetics of compound 14 and hemiasterlin were similarly evaluated.
(n.d. in the tables means less than the detection limit value (0.5 ng/mL).)

Data set [3] concerns the target T1, porcine tubulin (Sus scrofa, UniProt P02550+P02554). In words: Activity for inhibiting microtubule polymerization using porcine tubulins (1). It counts as biochemical. Details: purchased Cytoskeleton Inc. BK006P. As to conditions: compound 0.91 μM; absorbance at 340 nm, 37° C.; FIG. 1 and FIG. 2.
Data set [4] is described as follows: in vitro. The following applies: PAMPA, pH 7.4. As for the experimental part: By the parallel artificial membrane permeability assay (PAMPA), the membrane permeability of compounds of Examples was examined as follows: To the donor plate, System solution (pION inc.) and GIT Lipid-0 (pION inc.) were added in an amount of 200 μL and 4 μL for each well, respectively. To the acceptor plate, Acceptor Sink Buffer (pION inc.) was added in an amount of 200 μL. Both plates were superposed and incubated at 37° C. for 4 hours, and then, UVs in the solutions on the side of acceptor and on the side of donor were measured with an UV plate reader (190 to 500 nm). Compounds with poor UV absorption were measured by LC-MS. The permeability coefficient Pe (10^−6 cm/sec) of the drug was calculated by the following formula.

Data set [5] relates to SK-BR-3 cells. In words: Cellular toxicity test (2), CellTiter-Glo, SK-BR-3. It is filed as cell-based. As to conditions: Homo sapiens, 72 h, cultured 3 days, cell viability. As for the experimental part:
as §2, §3
SK-BR-3 cells (ATCC), which are a human breast cancer cell line, were cultured in McCoy's 5A (GIBCO) containing 10% fetal bovine serum (MP Biomedicals) (hereinafter, referred to as the “culture medium” in this test). SK-BR-3 cells were prepared to be 2×10^6 cells/mL in the culture medium, added to a 96 well microplate for cell culturing in an amount of 50 μL for each well, and cultured at 37 degree under 5% CO2 overnight, and then, compounds of Examples or hemiasterlin 4 times diluted with the culture medium in 8 stages were added to the microplate in an amount of 50 μL for each well. To wells to which the test substance was not added, the culture medium was added in an amount of 50 μL for each well. These were cultured at 37 degree under 5% CO2 for 3 days. After culturing, the microplate was taken out from the incubator, and was left at rest at room temperature for 10 minutes. 50 μL of CellTiter-Glo Luminescent Cell Viability Assay (Promega) was added, and the resultant mixture was stirred. This mixture was incubated at a dark place for 20 minutes. Using a microplate luminometer, luminescence at each well was measured, thereby calculating the cell viability for each concentration of the test substance. The IC50 value was calculated in accordance with the method described in Test Example 3.

Data set [6] deals with SU-DHL-1 cells. In words: Cellular toxicity test (1), CellTiter-Glo, SU-DHL-1. It is filed as cell-based. The following applies: Homo sapiens, 96 h, cultured 4 days, cell viability. Here is the method: as §1, §2, §3
Data set [7] deals with T1, porcine tubulin. In words: Activity for inhibiting microtubule polymerization using porcine tubulins (2), microtubule polymerization rate. As to conditions: 60 minutes after assay initiation; relative to wells without compound; lower = stronger inhibition.
Setting [8] is: mouse, plasma, iv, 1 mg/kg, single intravenous 1.0 mg/kg, 0.5 hr, read-out: Blood concentration, mean value.
[9] abbreviates: mouse, plasma, iv, 1 mg/kg, single intravenous 1.0 mg/kg, 2 hr, read-out: Blood concentration, individual mice 1-3.
The mark [10] stands for this setting: mouse, plasma, iv, 1 mg/kg, single intravenous 1.0 mg/kg, 2 hr, read-out: Blood concentration, mean value.
Setting [11] is: single intravenous 1.0 mg/kg, 0.5 hr, 1 mg/kg.
The mark [12] stands for this setting: single intravenous 1.0 mg/kg, 2 hr, 1 mg/kg.
The mark [13] stands for this setting: single intravenous 1.0 mg/kg, 6 hr.
Where [14] appears, read: single intravenous 1.0 mg/kg, 24 hr.

Values joined by “and” are separate entries in the source; they are usually repeats but may differ in a detail not shown here. Identical values can stand only once. “Also recorded” adds a separate entry of the source. Like-named read-outs stand apart in the source and are kept apart here.

T1 sequence (P02554 whole entry): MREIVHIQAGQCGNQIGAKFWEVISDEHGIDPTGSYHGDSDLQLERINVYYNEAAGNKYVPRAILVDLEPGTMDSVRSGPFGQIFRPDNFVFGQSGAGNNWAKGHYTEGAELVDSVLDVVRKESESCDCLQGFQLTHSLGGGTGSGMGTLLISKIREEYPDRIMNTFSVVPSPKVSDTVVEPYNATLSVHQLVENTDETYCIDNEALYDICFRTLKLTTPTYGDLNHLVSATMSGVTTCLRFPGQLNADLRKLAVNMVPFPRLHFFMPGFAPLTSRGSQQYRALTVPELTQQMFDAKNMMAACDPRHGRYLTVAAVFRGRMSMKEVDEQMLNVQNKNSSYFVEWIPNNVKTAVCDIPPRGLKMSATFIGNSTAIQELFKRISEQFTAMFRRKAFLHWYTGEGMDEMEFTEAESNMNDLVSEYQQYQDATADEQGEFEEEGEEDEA
T1 sequence (P02550 whole entry): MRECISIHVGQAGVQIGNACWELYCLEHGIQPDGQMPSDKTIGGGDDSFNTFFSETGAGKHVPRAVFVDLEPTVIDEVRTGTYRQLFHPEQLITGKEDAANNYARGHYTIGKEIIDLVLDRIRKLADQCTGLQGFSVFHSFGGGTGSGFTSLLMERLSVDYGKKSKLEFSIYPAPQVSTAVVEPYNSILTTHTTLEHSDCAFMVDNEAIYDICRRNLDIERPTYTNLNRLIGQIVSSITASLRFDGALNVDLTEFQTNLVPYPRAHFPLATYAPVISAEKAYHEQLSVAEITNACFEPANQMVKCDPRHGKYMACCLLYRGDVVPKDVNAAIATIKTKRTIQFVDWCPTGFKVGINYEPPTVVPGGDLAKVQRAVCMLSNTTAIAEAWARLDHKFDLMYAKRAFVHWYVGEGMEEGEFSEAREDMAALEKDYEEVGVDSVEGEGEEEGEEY

With `CN[C@H](C(=O)N[C@H](C(=O)N(C)[C@H](/C=C(\C)C(=O)N[C@H](CCC(=O)O)C(=O)O)C(C)C)C(C)(C)C)C(C)(C)c1cn(C)c2ccccc12` [Example 4], the 50% inhibitory concentration (IC50) in data set [1] is 291 nM; in data set [5] it was 193 nM; in data set [6], 250 nM. Besides, in data set [2] (mouse, plasma, 1 mg/kg), the half-life is < 0.5 h. In data set [2] (setting [8]), the concentration at 0.5 hr came to 13.7 ng/mL. Besides, the figures for the concentration at 2 hr in data set [2] (setting [9]) and in data set [2] (setting [10]) were 0.7 ng/mL and 0.8 ng/mL, respectively. The “Blood concentration, individual mice 1-3” value in data set [2] (setting [11]) is 10.3 ng/mL and 10.2 ng/mL and 20.6 ng/mL; in data set [2] (setting [12]), 1.0 ng/mL and 0.7 ng/mL; in data set [2] (setting [13]) it was “n.d. (less than the detection limit value (0.5 ng/mL))”; in data set [2] (setting [14]), “n.d. (less than the detection limit value (0.5 ng/mL))”. Moreover, the “Blood concentration, mean value” in data set [2] (setting [13]) and in data set [2] (setting [14]) was “n.d. (less than the detection limit value (0.5 ng/mL))” in each case. Also, the “Blood concentration of Example 4 detected as metabolite of Example 14” value in data set [2] (single intravenous administration of Example 14, 6 hr, animal 1) is recorded as “n.d. (less than the detection limit value (0.5 ng/mL))”; in data set [2] (single intravenous administration of Example 14, 6 hr, animal 2), “n.d. (less than the detection limit value (0.5 ng/mL))”; in data set [2] (single intravenous administration of Example 14, 6 hr, animal 3), “n.d. (less than the detection limit value (0.5 ng/mL))”; in data set [2] (single intravenous administration of Example 14, 24 hr, animal 1), “n.d. (less than the detection limit value (0.5 ng/mL))”; in data set [2] (single intravenous administration of Example 14, 24 hr, animal 2), “n.d. (less than the detection limit value (0.5 ng/mL))”; in data set [2] (single intravenous administration of Example 14, 24 hr, animal 3), “n.d. (less than the detection limit value (0.5 ng/mL))”. Moreover, the “Blood concentration of Example 4 detected as metabolite of Example 14, mean” value is recorded as “n.d. (less than the detection limit value (0.5 ng/mL))” in data set [2] (single intravenous administration of Example 14, 6 hr) and “n.d. (less than the detection limit value (0.5 ng/mL))” in data set [2] (single intravenous administration of Example 14, 24 hr). For the same compound, in data set [3], the “activity for inhibiting microtubule polymerization” value is listed as “exhibited activities for inhibiting microtubule polymerization; also recorded: exhibited a stronger polymerization inhibitory activity”. The apparent permeability coefficient (Papp) in data set [4] was < 0.1 ×10⁻⁶ cm/s.
For `CCOC(=O)CC[C@@H](NC(=O)/C(C)=C/[C@H](C(C)C)N(C)C(=O)[C@@H](NC(=O)[C@@H](NC)C(C)(C)c1cn(C)c2ccccc12)C(C)(C)C)C(=O)OCC` [Example 9], the “activity for inhibiting microtubule polymerization” value in data set [3] was “exhibited activities for inhibiting microtubule polymerization”.
With `CN[C@H](C(=O)N[C@H](C(=O)N(C)[C@H](/C=C(\C)C(=O)N[C@@H](CC(=O)O)C(=O)O)C(C)C)C(C)(C)C)C(C)(C)c1cn(C)c2ccccc12` [Example 11], the IC50 in data set [1] is 220 nM; in data set [5], 157 nM; in data set [6] it was 158 nM. Moreover, the “Microtubule polymerization rate (%)” value in data set [7] is 5%.
In the case of `CN[C@H](C(=O)N[C@H](C(=O)N(C)[C@H](/C=C(\C)C(=O)N[C@@H](CS)C(=O)OC)C(C)C)C(C)(C)C)C(C)(C)c1cn(C)c2ccccc12` [Example 22], the results for the concentration for half-maximal inhibition (IC50) in data set [5] and in data set [6] were 1.92 nM and 1.22 nM, respectively.
In the case of `CN[C@H](C(=O)N[C@H](C(=O)N(C)[C@H](/C=C(\C)C(=O)N[C@@H](CS)C(=O)O)C(C)C)C(C)(C)C)C(C)(C)c1cn(C)c2ccccc12` [Example 23], the “activity for inhibiting microtubule polymerization” value in data set [3] is “exhibited activities for inhibiting microtubule polymerization”. For the same compound, the IC50 is 143 nM in data set [5] and > 50 nM in data set [6].
In turn, `CN[C@H](C(=O)N[C@H](C(=O)N(C)[C@H](/C=C(\C)C(=O)N[C@@H](CCC(=O)OC)C(=O)OC)C(C)C)C(C)(C)C)C(C)(C)c1cn(C)c2ccccc12` [Example 72] had a half-maximal inhibitory concentration (IC50) in data set [1] of 106 nM. Also, the apparent permeability coefficient (Papp) in data set [4] was < 0.1 ×10⁻⁶ cm/s. In data set [7], the “Microtubule polymerization rate (%)” value stood at 1%.
On to `CN[C@H](C(=O)N[C@H](C(=O)N(C)[C@H](/C=C(\C)C(=O)O)C(C)C)C(C)(C)C)C(C)(C)c1cn(C)c2ccccc12` [Hemiasterlin, hemiasterlin], for which the IC50 in data set [1] was 0.032 nM; in data set [5], 0.088 nM. Moreover, the half-life in data set [2] (mouse, plasma, 1 mg/kg) was < 13.1 h. Further, the concentration at 0.5 hr in data set [2] (setting [8]) is 65 ng/mL. The concentration at 2 hr in data set [2] (setting [9]) came to 25.1 ng/mL; in data set [2] (setting [10]), 25.8 ng/mL. Moreover, the concentration at 6 hr came out at 18.9 ng/mL in data set [2] (mouse, plasma, iv, 1 mg/kg, single intravenous 1.0 mg/kg, 6 hr, read-out: Blood concentration, individual mice 1-3) and 22.4 ng/mL in data set [2] (mouse, plasma, iv, 1 mg/kg, single intravenous 1.0 mg/kg, 6 hr, read-out: Blood concentration, mean value). The concentration at 24 hr in data set [2] (mouse, plasma, iv, 1 mg/kg, single intravenous 1.0 mg/kg, 24 hr, read-out: Blood concentration, mean value) is 8.3 ng/mL. In addition, the “Blood concentration, individual mice 1-3” value in data set [2] (setting [11]) was 54.5 ng/mL and 99.8 ng/mL and 40.6 ng/mL; in data set [2] (setting [12]), 22.2 ng/mL and 30.20 ng/mL; in data set [2] (single intravenous 1.0 mg/kg, 6 hr, 1 mg/kg), 18.2 ng/mL and 30.2 ng/mL; in data set [2] (single intravenous 1.0 mg/kg, 24 hr, 1 mg/kg) it was 2.4 ng/mL and 12.8 ng/mL and 9.5 ng/mL. For the same compound, the “Microtubule polymerization rate (%)” value in data set [7] worked out at 3%.

As usually defined, the IC50 is the concentration needed to halve the response being measured. Usually half-life stands for the time in which the quantity being followed falls by half. A word on the Papp: it is the rate of passage across a membrane or cell layer, normalised by area and donor concentration.

The record behind these values is patent US12018093B2, “Hemiasterlin derivatives and antibody-drug conjugates including same” (priority 2017, dated 2024).
